Source: PubChem BioAssay (NCI)
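How tested: cells in 96-well plates exposed to compound for 48 hours at five concentrations. TGI: concentration producing complete growth inhibition.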

Columns and labels:
Test in all cases: NCI-60 cell line screen, 48 h
786-0 renal = tested on: 786-0 renal
A549 NSCLC = tested on: A549 NSCLC
ACHN renal = tested on: ACHN renal
BT-549 breast = tested on: BT-549 breast
CAKI-1 renal = tested on: CAKI-1 renal
CCRF-CEM leukemia = tested on: CCRF-CEM leukemia
COLO 205 colon = tested on: COLO 205 colon
DU-145 prostate = tested on: DU-145 prostate
EKVX NSCLC = tested on: EKVX NSCLC
HCC-2998 colon = tested on: HCC-2998 colon
HCT-116 colon = tested on: HCT-116 colon
HCT-15 colon = tested on: HCT-15 colon
HL-60(TB) leukemia = tested on: HL-60(TB) leukemia
HOP-62 NSCLC = tested on: HOP-62 NSCLC
HOP-92 NSCLC = tested on: HOP-92 NSCLC
HS 578T breast = tested on: HS 578T breast
HT29 colon = tested on: HT29 colon
IGROV1 ovarian = tested on: IGROV1 ovarian
K-562 leukemia = tested on: K-562 leukemia
KM12 colon = tested on: KM12 colon
LOX IMVI melanoma = tested on: LOX IMVI melanoma
M14 melanoma = tested on: M14 melanoma
MALME-3M melanoma = tested on: MALME-3M melanoma
MCF7 breast = tested on: MCF7 breast
MDA-MB-231 breast = tested on: MDA-MB-231 breast
MDA-MB-435 = tested on: MDA-MB-435
MDA-N = tested on: MDA-N
MOLT-4 leukemia = tested on: MOLT-4 leukemia
NCI-H226 lung = tested on: NCI-H226 lung
NCI-H23 lung = tested on: NCI-H23 lung
NCI-H460 lung = tested on: NCI-H460 lung
NCI-H522 lung = tested on: NCI-H522 lung
NCI/ADR-RES ovarian = tested on: NCI/ADR-RES ovarian
OVCAR-3 ovarian = tested on: OVCAR-3 ovarian
OVCAR-4 ovarian = tested on: OVCAR-4 ovarian
OVCAR-5 ovarian = tested on: OVCAR-5 ovarian
OVCAR-8 ovarian = tested on: OVCAR-8 ovarian
PC-3 prostate = tested on: PC-3 prostate
RPMI-8226 leukemia = tested on: RPMI-8226 leukemia
RXF 393 renal = tested on: RXF 393 renal
SF-268 CNS = tested on: SF-268 CNS
SF-295 CNS = tested on: SF-295 CNS
SF-539 CNS = tested on: SF-539 CNS
SK-MEL-2 melanoma = tested on: SK-MEL-2 melanoma
SK-MEL-28 melanoma = tested on: SK-MEL-28 melanoma
SK-MEL-5 melanoma = tested on: SK-MEL-5 melanoma
SK-OV-3 ovarian = tested on: SK-OV-3 ovarian
SN12C renal = tested on: SN12C renal
SNB-19 CNS = tested on: SNB-19 CNS
SNB-75 CNS = tested on: SNB-75 CNS
SR leukemia = tested on: SR leukemia
SW-620 colon = tested on: SW-620 colon
T-47D breast = tested on: T-47D breast
TK-10 renal = tested on: TK-10 renal
U251 CNS = tested on: U251 CNS
UACC-257 melanoma = tested on: UACC-257 melanoma
UACC-62 melanoma = tested on: UACC-62 melanoma
UO-31 renal = tested on: UO-31 renal

Measured: TGI

COc1cc(C(=O)O)ccc1OS(=O)(=O)O
> 100 µM: 786-0 renal | A549 NSCLC | ACHN renal | BT-549 breast | CAKI-1 renal | CCRF-CEM leukemia | COLO 205 colon | DU-145 prostate | EKVX NSCLC | HCC-2998 colon | HCT-116 colon | HCT-15 colon | HL-60(TB) leukemia | HOP-62 NSCLC | HOP-92 NSCLC | HS 578T breast | HT29 colon | IGROV1 ovarian | K-562 leukemia | KM12 colon | LOX IMVI melanoma | M14 melanoma | MALME-3M melanoma | MCF7 breast | MDA-MB-231 breast | MDA-MB-435 | MDA-N | MOLT-4 leukemia | NCI-H226 lung | NCI-H23 lung | NCI-H460 lung | NCI-H522 lung | NCI/ADR-RES ovarian | OVCAR-3 ovarian | OVCAR-4 ovarian | OVCAR-5 ovarian | OVCAR-8 ovarian | PC-3 prostate | RPMI-8226 leukemia | RXF 393 renal | SF-268 CNS | SF-295 CNS | SF-539 CNS | SK-MEL-2 melanoma | SK-MEL-28 melanoma | SK-MEL-5 melanoma | SK-OV-3 ovarian | SN12C renal | SNB-19 CNS | SNB-75 CNS | SR leukemia | SW-620 colon | T-47D breast | TK-10 renal | U251 CNS | UACC-257 melanoma | UACC-62 melanoma | UO-31 renal
